Experimental data from patent US5254686A, “Procaine double salt complexes” (priority 1992, dated 1993).
Counter-ions that a name gives are not always drawn.

Assays:
[1] = unlike other mental stimulants such as amphetamines; cited from earlier work
[2] = solubility in water and ethanol; type: physicochemical
Description: To 50 mls. of boiling water was added 27.2 grams (0.1 mole) of procaine HCl with stirring until completely dissolved. With stirring was added 12.3 grams (0.1 mole) of nicotinic acid. This mixture was heated at the boiling point until clear. The solution was allowed to cool and a white crystalline precipitate formed which was separated in a Buchner funnel and washed twice with […] of cold distilled water. […] In contrast, a 1:1 molar mixture of procaine HCl and nicotinic acid melts at 145°-150° C.
Into a hot solution of 50 mls of ethanol and 30 mls of water was dissolved 2.72 grams (0.01 mole) of procaine HCl. To this was added 2.44 grams (0.01 mole) of biotin and heat was maintained until the ingredients reacted and the solution cleared. On cooling, crystallization took place easily. White crystalline platelets were filtered, washed and dried.

plasma cholinesterase = conditions: once absorbed; into PABA and DEAE; cited from earlier work
[3] = hydrochloride salt form; cited from earlier work
[4] = 1.3-6.5 moles of caffeine per mole of procaine, aqueous solutions; cited from earlier work

CCN(CC)CCO [DEAE, diethylaminoethanol]
adverse side effects [1]: no adverse side effects such as depression

CCN(CC)CCOC(=O)c1ccc(N)cc1 [II, 1:1 Complex of Procaine HCl and Nicotinic Acid]
solubility in water and 95% ethanol ([2]; water and 95% ethanol): moderately soluble

CCN(CC)CCOC(=O)c1ccc(N)cc1 [IV, 1:1 Complex of Procaine HCl and Biotin]
solubility in water and ethanol ([2]; water and ethanol): partly soluble

CCN(CC)CCOC(=O)c1ccc(N)cc1 [Procaine hydrochloride, procaine hydrochloride]
hydrolysis by plasma cholinesterase (plasma cholinesterase): rapidly hydrolyzed
solubility in water [3]: soluble in water

Cn1c(=O)c2c(ncn2C)n(C)c1=O [caffeine]
inhibition of procaine hydrolysis [4]: shown to inhibit procaine hydrolysis
